The subject of assay [1] is Endothelin-converting enzyme 1 (Sus scrofa). Briefly: Inhibition of endothelin-converting enzyme 1 partially purified from porcine primary aortic endothelial cells at 20 uM. To be noted: Endothelial cell.
The test system is the same in assay [2]. As to the kind of experiment: Compound was evaluated for inhibition of Endothelin converting enzyme-1 partially purified from porcine primary aortic endothelial cells at 20 uM. To be noted: Endothelial cell.

The term inhibition denotes the percentage by which the read-out fell short of the control. Low values mean a response near the control, high ones a response far below the control.

With `O=C(N[C@@H](CS)Cc1ccccc1)c1ccco1`, the inhibition in assay [1] was 54%.

Take `O=C(N[C@@H](CS)Cc1ccccc1)C1Cc2ccccc2CN1` (some centres undefined): the inhibition in assay [1] worked out at 33%.

For the compound `O=C(Cc1ccccc1)N[C@@H](CS)Cc1ccc(O)cc1`, the inhibition in assay [1] worked out at 56%.

For the compound `O=C(Cc1ccc(-c2ccccc2)cc1)N[C@@H](CS)Cc1ccccc1`, the inhibition in assay [1] worked out at 74%.

For the compound `CC(C)C[C@H](CS)NC(=O)c1cccnc1`, in assay [1], the inhibition is 21%.

The compound `O=C(Cc1ccc(OCc2ccccc2)cc1)N[C@@H](CS)Cc1ccc(-c2cccc3ccccc23)cc1` yielded an inhibition in assay [1] of 0%.

Compound `O=C(Cc1ccc(-c2ccccc2)cc1)N[C@@H](CS)CCc1ccccc1` yielded an inhibition in assay [1] of 16%.

As to `O=C(N[C@@H](CS)Cc1ccccc1)c1nccc2ccccc12`, the inhibition in assay [1] worked out at 36%.

The compound `O=C(Cc1ccc(OCc2ccccc2)cc1)N[C@@H](CS)Cc1cccc2ccccc12` had an inhibition in assay [1] of 51%.

As to `O=C(Cc1cccnc1)N[C@@H](CS)Cc1ccccc1`, the inhibition in assay [1] was 58%.

Take `O=C(CCc1ccccc1Cl)N[C@@H](CS)Cc1ccccc1`: the inhibition in assay [1] was 57%.

In the case of `O=C(Cc1ccc(OCc2ccccc2)cc1)N[C@@H](CCS)Cc1c[nH]c2ccccc12`, the inhibition in assay [1] is > 20%.

`O=C(N[C@@H](CS)Cc1ccccc1)c1ccncc1` had an inhibition in assay [1] of 48%.

Turning to `O=C(Cc1ccc(OCc2ccccc2)cc1)N[C@H](Cc1c[nH]c2ccccc12)C(=O)N1CCC[C@@H]1CS`, the inhibition in assay [1] was > 20%.

`CC(C)[C@H](CS)NC(=O)c1cccnc1`: the inhibition in assay [1] is 30%.

As for `O=C(N[C@@H](CS)Cc1ccc(-c2ccccc2)cc1)c1cccnc1`, the inhibition in assay [1] stood at 39%.

As to `O=C(N[C@@H](CS)Cc1ccccc1)c1cccs1`, the inhibition in assay [1] was found to be 67%.

`O=C(Cc1ccccc1OCc1ccccc1)N[C@@H](CS)Cc1ccccc1` showed an inhibition in assay [2] of 63%.

`O=C(Cc1ccc(OCc2ccccc2)cc1)N[C@@H](CS)Cc1ccc2ccccc2c1` gave an inhibition in assay [1] of 10%.

Consider `O=C(Cc1ccccc1)N[C@@H](CS)Cc1ccccc1`, for which the inhibition in assay [1] was 58%.

As for `O=C(N[C@@H](CS)Cc1ccccc1)[C@@H]1CCCN1`, the inhibition in assay [1] came out at 0%.

For the compound `CN(C(=O)Cc1ccccc1)[C@@H](CS)Cc1ccccc1`, in assay [1], the inhibition came out at 24%.

`O=C(CCc1ccccc1)N[C@@H](CS)Cc1ccccc1` had an inhibition in assay [1] of 49%.

In assay [1], `O=C(Cc1ccc(-c2ccccc2)cc1)N[C@@H](CS)Cc1cccnc1` showed an inhibition of 91%.

In turn, `O=C(CCc1ccccc1O)N[C@@H](CS)Cc1ccccc1` registered an inhibition in assay [1] of 58%.

Compound `O=C(N[C@@H](CS)Cc1ccccc1)c1c[nH]c2ccccc12` had an inhibition in assay [1] of 67%.

As to `Cn1cc(C[C@H](CS)NC(=O)Cc2ccc(-c3ccccc3)cc2)c2ccccc21`, the inhibition in assay [1] was found to be 68%.

For the compound `O=C(N[C@@H](CS)Cc1ccccc1)c1ccccn1`, the inhibition in assay [1] was determined as 52%.

On to `O=C(N[C@H](Cc1c[nH]c2ccccc12)C(=O)NCCS)c1cccnc1`, for which the inhibition in assay [1] is > 20%.

Regarding `O=C(N[C@@H](CS)Cc1ccccc1)c1cc2ccccc2cn1`, the inhibition in assay [1] stood at 76%.

For the compound `O=C(N[C@@H](CS)Cc1ccccc1)/C(=C/c1ccccc1)c1ccccc1`, in assay [1], the inhibition was found to be 23%.

In turn, `O=C(CCC(C(=O)O)c1ccccc1)N[C@@H](CS)Cc1ccccc1` (some centres undefined) gave an inhibition in assay [1] of 48%.

Consider `O=C(CCc1cccnc1)N[C@@H](CS)Cc1ccccc1`, for which the inhibition in assay [1] was found to be 66%.

For the compound `O=C(Cc1ccccc1)N[C@@H](CS)Cc1ccc(OCc2ccccc2)cc1`, the inhibition in assay [1] was 15%.
